Experimental data as given in US6825340B2, “Methods and reagents for inactivating ribonucleases” (Ambion, Inc., priority 1998, dated 2004).

Tests used:
[1] = tested on: RNase mixture (RNase A, RNase 1, RNase T1); assay: Non-isotopic RNase inactivation assay (mouse total RNA, agarose gel); assay type: biochemical, human, E. coli and a fungus; design: key to RNase Inactivation Water / RNase Inactivation Buffer A / RNase Inactivation Buffer B / RNase Inactivation Buffer C: (+) indicates that the RNase mixture was inactivated; (−) indicates that the RNase mixture was not activated as determined by the non-isotopic assay; conditions: for RNase Inactivation Buffer B: 50 mM Tris-HCl (pH 7.0); for RNase Inactivation Buffer C: 30 mM NaCl, 3 mM sodium citrate (pH 7.5)
Source text: The inventors routinely perform assays on RNA designed to assess RNase activity in a sample. Two different assays are typically used for the detection of ribonuclease activity, non-isotopic and isotopic. […] In both assays, the inactivation process is typically performed on a mixture of three different ribonucleases: RNase A, RNase 1, and RNase T1. Each ribonuclease is purified from a different species: […], E. coli and a fungus, respectively. The three RNases are very different from each other in their origin, substrate specificity and protein sequence. In this way, the inactivation process can test three completely different but well characterized ribonucleases. The standard stock RNase mixture employed in the following examples is prepared by combining 1 μl RNase 1 (100 U/μl; Ambion), 1 μl RNase cocktail (RNase A, 0.5 U/μl; RNase T1, 20 U/μl, Ambion) and 98 μl water. The non-isotopic assay uses total RNA isolated from mouse as the substrate for the RNase mixture. […] A quantity of 4 μg of total RNA isolated from mouse liver or brain was dissolved in an aqueous solution, usually water or 1 mM sodium citrate (pH 6.6). The treated ribonuclease sample was added to the total RNA and then incubated at 37° C. for 1 or 16 hours, depending on the sensitivity desired for the assay. After incubation, the RNA was fractionated in a formaldehyde 1% agarose gel. The RNA was detected by staining with ethidium bromide and then illuminating the gel with ultraviolet light. The RNA fluoresces in the gel. Untreated total RNA was also fractionated as a control with the test samples for comparative purposes. […] Intact total RNA has two major bands produced by the 28S and 18S ribosomal RNA. […] The RNase cocktail was made to various concentrations in different buffers in different DTT concentrations and incubated at 37° C. or 60° C. for 20 minutes. Total mouse RNA was added to the treated RNase mixture and incubated at 37° C. for one hour, fractionated in a formaldehyde denaturing 1% agarose gel and the RNA visualized by ethidium bromide staining and UV fluorescence.

DNase I = DNase I (Bos taurus, UniProt P00639); assay: DNase I activity after reducing/heat treatment, plasmid DNA degradation; assay type: biochemical; conditions: 20 mM reducing reagent in water; DNase I 0.4 units/μl; 60° C. for 20 minutes
Chain of DNase I (P00639 23-282): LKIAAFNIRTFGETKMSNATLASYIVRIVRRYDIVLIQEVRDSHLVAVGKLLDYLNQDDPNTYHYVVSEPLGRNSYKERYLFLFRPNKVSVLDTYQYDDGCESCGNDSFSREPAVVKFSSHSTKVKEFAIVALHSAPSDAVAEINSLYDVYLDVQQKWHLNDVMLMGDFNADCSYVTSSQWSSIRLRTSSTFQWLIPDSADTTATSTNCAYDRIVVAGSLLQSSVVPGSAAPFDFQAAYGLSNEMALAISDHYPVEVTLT
Method: DNase I is commonly used to degrade contaminating DNA in RNA preparations. To test whether the inactivation method affected DNase I activity, DNase I (final concentration of 0.4 units/μl) was added to water containing 20 mM DTT, DTE or β-mercaptoethanol. The mixture was incubated at 60° C. for 20 minutes. After the heat treatment, the DNase I activity was tested by incubating the treated DNase I with plasmid DNA (0.2 μg/μl ) at 37° C. for one hour followed by electrophoresis in a 1% agarose gel.

[2] = pH 7.0; cited from earlier work
[3] = RNase Mix 64 ng/ml, DTT 5 mM, 60° C. for 20 minutes
[4] = RNase Mix 64 ng/ml, DTT 10 mM, 37° C. for 20 minutes
[5] = RNase Mix 64 ng/ml, DTT 10 mM, 60° C. for 20 minutes
[6] = RNase Mix 95 ng/ml, DTT 5 mM, 60° C. for 20 minutes
[7] = RNase Mix 95 ng/ml, DTT 10 mM, 37° C. for 20 minutes
[8] = RNase Mix 95 ng/ml, DTT 10 mM, 60° C. for 20 minutes
[9] = RNase Mix 191 ng/ml, DTT 5 mM, 60° C. for 20 minutes
[10] = RNase Mix 191 ng/ml, DTT 10 mM, 37° C. for 20 minutes
[11] = RNase Mix 191 ng/ml, DTT 10 mM, 60° C. for 20 minutes
[12] = RNase Mix 191 ng/ml, DTT 20 mM, 60° C. for 20 minutes
[13] = RNase Mix 954 ng/ml, DTT 5 mM, 60° C. for 20 minutes
[14] = RNase Mix 954 ng/ml, DTT 10 mM, 37° C. for 20 minutes
[15] = RNase Mix 954 ng/ml, DTT 10 mM, 60° C. for 20 minutes
[16] = RNase Mix 954 ng/ml, DTT 20 mM, 60° C. for 20 minutes

O[C@H](CS)[C@H](O)CS [DTT, dithiothreitol]
concentration of RNase mixture completely inactivated ([1]; 20 mM DTT, 1 mM sodium citrate (pH 6.4), 60° C. for 20 minutes, non-isotopic assay, 1 hour incubation): up to 200 ng/ml
inactivation of sequentially added RNases ([1]; 20 mM DTT, 1 mM sodium citrate (pH 6.4), RNases 200 ng/ml per addition, heating at 60° C. for 20 minutes after each addition): completely inactivated
concentration of RNase mixture completely inactivated in the presence of RNA ([1]; 20 mM DTT, mouse liver total RNA 4 μg/10 μl, 1 mM sodium citrate (pH 6.4), 60° C. for 20 minutes): up to 3.125 ng/ml
effect of sequentially added RNases without reheating ([1]; 20 mM DTT, same buffer, not subjected to the 60° C. incubation): complete RNA degradation
60° C. incubation time required for inactivation ([1]; RNase 200 ng/ml, 20 mM DTT, 60° C.): at least 4 minutes
RNase Inactivation Buffer A ([1]; RNase Mix 64 ng/ml, DTT 5 mM, 60° C. for 20 minutes, 1 mM sodium citrate (pH 6.4)): +
RNase Inactivation Buffer B [1, 3]: +
RNase Inactivation Buffer C [1, 3]: +
RNase Inactivation Water [1, 3]: +
RNase Inactivation Buffer A ([1]; RNase Mix 64 ng/ml, DTT 10 mM, 37° C. for 20 minutes, 1 mM sodium citrate (pH 6.4)): +
RNase Inactivation Buffer B [1, 4]: +
RNase Inactivation Buffer C [1, 4]: +
RNase Inactivation Water [1, 4]: +
RNase Inactivation Buffer A ([1]; RNase Mix 64 ng/ml, DTT 10 mM, 60° C. for 20 minutes, 1 mM sodium citrate (pH 6.4)): +
RNase Inactivation Buffer B [1, 5]: +
RNase Inactivation Buffer C [1, 5]: +
RNase Inactivation Water [1, 5]: +
RNase Inactivation Buffer A ([1]; RNase Mix 95 ng/ml, DTT 5 mM, 60° C. for 20 minutes, 1 mM sodium citrate (pH 6.4)): −
RNase Inactivation Buffer B [1, 6]: −
RNase Inactivation Buffer C [1, 6]: −
RNase Inactivation Water [1, 6]: −
RNase Inactivation Buffer A ([1]; RNase Mix 95 ng/ml, DTT 10 mM, 37° C. for 20 minutes, 1 mM sodium citrate (pH 6.4)): −
RNase Inactivation Buffer B [1, 7]: −
RNase Inactivation Buffer C [1, 7]: −
RNase Inactivation Water [1, 7]: −
RNase Inactivation Buffer A ([1]; RNase Mix 95 ng/ml, DTT 10 mM, 60° C. for 20 minutes, 1 mM sodium citrate (pH 6.4)): +
RNase Inactivation Buffer B [1, 8]: +
RNase Inactivation Buffer C [1, 8]: +
RNase Inactivation Water [1, 8]: +
RNase Inactivation Buffer A ([1]; RNase Mix 191 ng/ml, DTT 5 mM, 60° C. for 20 minutes, 1 mM sodium citrate (pH 6.4)): −
RNase Inactivation Buffer B [1, 9]: −
RNase Inactivation Buffer C [1, 9]: −
RNase Inactivation Water [1, 9]: −
RNase Inactivation Buffer A ([1]; RNase Mix 191 ng/ml, DTT 10 mM, 37° C. for 20 minutes, 1 mM sodium citrate (pH 6.4)): −
RNase Inactivation Buffer B [1, 10]: −
RNase Inactivation Buffer C [1, 10]: −
RNase Inactivation Water [1, 10]: −
RNase Inactivation Buffer A ([1]; RNase Mix 191 ng/ml, DTT 10 mM, 60° C. for 20 minutes, 1 mM sodium citrate (pH 6.4)): +
RNase Inactivation Buffer B [1, 11]: +
RNase Inactivation Buffer C [1, 11]: +
RNase Inactivation Water [1, 11]: +
RNase Inactivation Buffer A ([1]; RNase Mix 191 ng/ml, DTT 20 mM, 60° C. for 20 minutes, 1 mM sodium citrate (pH 6.4)): +
RNase Inactivation Buffer B [1, 12]: +
RNase Inactivation Buffer C [1, 12]: +
RNase Inactivation Water [1, 12]: +
RNase Inactivation Buffer A ([1]; RNase Mix 954 ng/ml, DTT 5 mM, 60° C. for 20 minutes, 1 mM sodium citrate (pH 6.4)): −
RNase Inactivation Buffer B [1, 13]: −
RNase Inactivation Buffer C [1, 13]: −
RNase Inactivation Water [1, 13]: −
RNase Inactivation Buffer A ([1]; RNase Mix 954 ng/ml, DTT 10 mM, 37° C. for 20 minutes, 1 mM sodium citrate (pH 6.4)): −
RNase Inactivation Buffer B [1, 14]: −
RNase Inactivation Buffer C [1, 14]: −
RNase Inactivation Water [1, 14]: −
RNase Inactivation Buffer A ([1]; RNase Mix 954 ng/ml, DTT 10 mM, 60° C. for 20 minutes, 1 mM sodium citrate (pH 6.4)): −
RNase Inactivation Buffer B [1, 15]: −
RNase Inactivation Buffer C [1, 15]: −
RNase Inactivation Water [1, 15]: −
RNase Inactivation Buffer A ([1]; RNase Mix 954 ng/ml, DTT 20 mM, 60° C. for 20 minutes, 1 mM sodium citrate (pH 6.4)): +
RNase Inactivation Buffer B [1, 16]: +
RNase Inactivation Buffer C [1, 16]: +
RNase Inactivation Water [1, 16]: +
RNase mixture inactivation ([1]; RNase mixture 64 ng/ml, 10 mM DTT, 37° C. for 20 minutes): inactivated
RNase activity inactivated ([1]; RNase mixture 200 ng/ml, 20 mM DTT, 60° C. for 1 minute): approximately 50%
RNase activity inactivated ([1]; RNase mixture 200 ng/ml, 20 mM DTT, 60° C. for 2 minutes): ~80%
RNase activity inactivated ([1]; RNase mixture 200 ng/ml, 20 mM DTT, 60° C. for 4 minutes): ~100%
RNase inactivation in different buffers and solutions ([1]; RNase mixture 200 ng/ml, 20 mM DTT, 60° C. for 20 minutes, 17 solutions, non-isotopic): inactivated RNase activity in all of buffers and solutions tested
RNase mixture inactivation ([1]; RNase mixture 200 ng/ml, 20 mM DTT, 60° C. for less than 30 seconds): did not inactivate
RNase mixture inactivation ([1]; RNase mixture 954 ng/ml, 20 mM DTT, 60° C. for 20 minutes): inactivated
RNase activity on retest after storage ([1]; solutions with inactivated RNases stored at 4° C. for one month): none of the solutions had detectable RNase activity
DNase I activity after reducing/heat treatment (DNase I): not affected
redox potential [2]: −0.33 volts
